Data set [1] deals with photoreceptor layer of rats exposed to blue light. Put plainly: Blue light (480 nm) photoreceptor damage in rats, retinal structure by histology. Format: in vivo, Sprague-Dawley rats. Also on record: key to Protective Activity: * means a protective effect of the photoreceptor layer to damage from blue light radiation.; **: Greater effectiveness is shown by increasing number of *'s.; ***: Greater effectiveness is shown by increasing number of *'s.; X means no such protective effect. As to conditions: for thickness of the photoreceptor layer: FIG. 2, oral 5 days before blue light, tazarotene 3 mg/kg/day, Compound A 10 mg/kg/day, compared with vehicle and antagonists; for thickness of the photoreceptor layer / Protective Activity: rats; for Protective Activity: oral dosing 5 days, last dose 2 hours before 8 hours blue light (480 nm, 12000 LUX). The procedure: (§1) Adult male abino Sprague-Dawley rats (weight 400±30 g) were used for the following examples. After 18 hours of dark adaptation, animals were housed in specially designed acrylic cages and exposed to high intensity (12000 LUX) of blue fluorescent light (480 nm) for 8 hours. The light intensity was measured with a digital light meter. Each animal was housed separately. The room was maintained at 73° F. throughout the experiment. Animals were orally dosed with the appropriate retinoid or positive control, i.e. brimonidine, for 5 days with the last dose administered 2 hours before blue-light exposure. After the light exposure, the animals were kept in the dark room and recovered for an additional 5 days. Retinal function was evaluated with flash ERG analysis. Retinal structure was assessed by histology.
The following retinoids were evaluated for preventing damage to the photoreceptor layer of rats subjected to exposure to blue light.
(The RAR agonist, tazarotene, is an RARβ and […] retinioid. The RXR agonist also has some RAR agonist activity.)
In this Example, the above experiment is repeated with the RAR antagonist, which has antagonist activity at the α, β and […] retinoid receptor subtype dosed in combination with the RAR agonist and the RXR agonist.
The following retinoid compounds were tested in the above method with the results reported as shown.

The test system is the same in data set [2]. Nature of the data set: Blue light (480 nm) photoreceptor damage in rats, retinal function by flash ERG. Format: in vivo, Sprague-Dawley rats. The note with it: FIG. 3, ERG wave versus time, oral 5 days before blue light. The procedure: as §1
Data set [3] relates to photoreceptors of rats and mice. The note with it: Sparrow PNAS 2003, Sieving PNAS 2001; cited from earlier work.

Here are results for eight compounds from patent US20070112032A1, “Prevention and/or reduction of photoreceptor degeneration with retinoids” (priority 2003, published 2007).

As for `Brc1c(NC2=NCCN2)ccc2nccnc12` [brimonidine, reference compound], the “thickness of the photoreceptor layer” value in data set [1] is recorded as “much greater than the thickness of the photoreceptor layers of the animals dosed with the vehicle alone”. Regarding `CC(/C=C/[C@@H]1C[C@]1(C)c1ccc2c(c1)C(C)(C)CCC2(C)C)=C\C(=O)O` [Compound A, 3,7-Dimethyl-6(S),7(S)-methano-7-[1,1,4,4-tetramethyl-1,2,3,4-tetrahydronaphth-7-yl]-2E, 4E-heptadienoic acid], in data set [1], the “thickness of the photoreceptor layer” value is given as “greater than the photoreceptor layers of the animals dosed with the RAR or RXR antagonists” and the “Protective Activity” value is given as “**”. In addition, the “protective effect to the photoreceptor layer measured by ERG” value in data set [2] is recorded as “show a protective effect”. For `CC1(C)CCC(C)(C)c2c1cc(C(=O)Nc1cc(F)c(C(=O)O)c(F)c1)c(O)c2Cl` [Compound E, 4-[(4-Chloro-3-hydroxy-5,5,8,8-tetramethyl-5,6,7,8-tetrahydro-naphthalene-2-carbonyl)-amino]-2,6-difluoro-benzoic acid], the “Protective Activity” value in data set [1] is “**”. Turning to `CCc1ccc(C2=CC(C)(C)Sc3ccc(C#Cc4ccc(C(=O)O)cc4)cc32)cc1` [Compound C], the “effect of RAR antagonist on effectiveness of RAR agonist and RXR agonist” value in data set [1] (FIG. 5, RAR antagonist dosed in combination with the RAR agonist and the RXR agonist) is “severely diminishes the effectiveness of both the RAR agonist and the RXR agonists”. Further, in data set [1], the “Protective Activity” value is recorded as “X”. For `Cc1ccc(C2CC(C)(C)Oc3c(Br)cc(NC(=O)c4ccc(C(=O)O)c(F)c4)cc32)cc1` (centres unmarked) [Compound D, 2-Fluoro-4-[6′-(2″,2″-dimethyl-4″-tolylchromanyl)-8'-bromo]carbamoyl benzoic acid], in data set [1], the “Protective Activity” value was “X”. With `CCC[C@]1(c2ccc3c(c2)C(C)(C)CCC3(C)C)C[C@H]1/C=C/C(C)=C/C(=O)O` [Compound F, 3-Methyl-7-propyl-6(S),7(S)-methano-7[1,1,4,4-tetrametyl-1,2,3,4-tetrahydro-7-yl]-2(E),4(E)-heptadienoic acid], the “Protective Activity” value in data set [1] was “X”. Consider `CC1=C(/C=C/C(C)=C/C=C/C(C)=C\C(=O)O)C(C)(C)CCC1` [isotretinoin, 13-cis retinoic acid], for which the “protection of photoreceptors from light damage” value in data set [3] was “can protect photoreceptors of rats and mice from light damage”. As to `CCCOc1c(\C(CC)=C(F)/C=C/C(C)=C/C(=O)O)cc(C(C)C)cc1C(C)C` [Compound B, (2E,4E,6E)-7-(3,5-Diisopropyl-2-propoxy-phenyl)-6-fluoro-3-methyl-nona-2,4,6-trienoic acid], the “Protective Activity” value in data set [1] is listed as “X”.
